Measurements as given in patent US5550129A, “Benzopyranones, processes for their preparation and their use” (Willmar Schwabe GmbH & Co., priority 1992, dated 1996).

Key:
NMDA-induced death [1] = assay: NMDA test (25 mg/kg i.v.), protection against NMDA-induced death; type: in vivo, male NMRI mice; conditions: Mus musculus; for responders at 5 mg/kg: 5 mg/kg oral, 1 hr before test, NMDA 25 mg/kg i.v., proportion of surviving animals, read-out: Protective action; for ED50: 1 h, oral, one hour before NMDA 25 mg/kg i.v., dose protecting 50% of animals against NMDA-induced death
Experimental: The following method was used to determine the neuroprotective/anticonvulsive activity of the compounds according to the invention of the general formula I: […]
In order to evaluate the neuroprotective activity, NMDA was administered intravenously in an amount of 25 mg/kg/10 ml to male NMRI mice having a body weight of 20-25 g. As a result of this administration the animals suffered clonic and in some cases also tonic convulsions, leading to death. Prevention of death is used as a criterion of the effectiveness of the investigated compounds.
All experimental animals had free access to food and water before the experiments. The test and reference substances were administered orally as a suspension in 0.2% agar or water, by means of a pharyngeal probe, in some cases with the aid of solubilizers such as PEG-400. Control animals received the same volume of solvents, if necessary with the addition of solubilizers. One hour after administration of the substance NMDA was administered intravenously and the occurrence of convulsions was observed.
The results of the tests carried out (NMDA 25 mg i.v.) at doses of 5 mg of the compounds according to the invention per kg body weight compared to known NMDA antagonists are given in Table 1. The percentage proportion of the surviving animals is given as % effect.
Table 1 also gives as ED-50 values those doses of the substances according to the invention and other NMDA antagonists, which in the NMDA i.v. test (25 mg/kg) one hour after administration protected 50% of the animals against NMDA-induced death.
The ED-50 values were determined according to the method of Lichtfield and Wilcoxon, J. Pharmacol. exp. Therapeut. 96, 99 (1949), in each case using 4-5 groups of animals each containing 10 animals per dose stage.

NMDA-induced death [2] = assay: as above; type: in vivo, male NMRI mice; conditions: Mus musculus, 1 hr before test, NMDA 25 mg/kg i.v., proportion of surviving animals, read-out: Protective action; for responders at 50 mg/kg: 50 mg/kg oral; for responders at 20 mg/kg: 20 mg/kg oral

Compound	responders at 5 mg/kg (NMDA-induced death [1]) [%]	ED50 (NMDA-induced death [1]) [mg/kg]	responders at 50 mg/kg (NMDA-induced death [2]) [%]	responders at 20 mg/kg (NMDA-induced death [2]) [%]
COc1cc(OC)c2c(C)c(CCN3CCN(c4ccccc4C)CC3)c(=O)oc2c1 [Example 21, 5,7-dimethoxy-4-methyl-3-{2-[4-(2-methylphenyl)-1-piperazinyl]ethyl}-2H-1-benzopyran-2-one]	87.5			
COc1ccc2c(c1)[C@]13CCCC[C@@H]1[C@H](C2)N(C)CC3 [Dextromethorphan, reference compound]		66.7	50	
COc1cc2oc(=O)c(CCN3CCN(c4ccccc4OC)CC3)c(C)c2cc1O [Example 2, 6-hydroxy-7-methoxy-3-{2-[4-(2-methoxyphenyl)-1-piperazinyl]ethyl}-4-methyl-2H-1-benzopyran-2-one]	100	0.2		
COc1cc(OC)c2c(C)c(CCN3CCN(c4ccccc4O)CC3)c(=O)oc2c1 [Example 25, 3-{2-[4-(2-hydroxyphenyl)-1-piperazinyl]-ethyl}-5,7-dimethoxy-4-methyl-2H-1-benzopyran-2-one]	87.5			
COc1cc(OC)c2c(C)c(CCN3CCC(c4ccccc4)CC3)c(=O)oc2c1 [Example 14, 5,7-dimethoxy-4-methyl-3-[2-(4-phenyl-1-piperidinyl)ethyl]-2H-1-benzopyran-2-one]	87.5	2.2		
COc1cc(OC)c2c(C)c(CCN3CCC(O)(c4ccccc4)CC3)c(=O)oc2c1 [Example 24, 3-[2-(4-hydroxy-4-phenyl-1-piperidinyl)ethyl]-5,7-dimethoxy-4-methyl-2H-1-benzopyran-2-one]	25			
CCOc1cc2c(C)c(CCN3CCN(c4ccccc4)CC3)c(=O)oc2cc1OC [Example 6, 6-ethoxy-7-methoxy-4-methyl-3-[2-(4-phenyl-1-piperazinyl)ethyl]-2H-1-benzopyran-2-one]	87.5	2		
COc1ccc2c(C)c(CCN3CCN(c4ccccc4OC)CC3)c(=O)oc2c1 [Example 1, 7-methoxy-3-{2-[4-(2-methoxyphenyl)-1-piperazinyl]ethyl}-4-methyl-2H-1-benzopyran-2-one]	87.5	0.8		
COc1cc(OC)c2c(C)c(CCN3CCN(c4ccccc4)CC3)c(=O)oc2c1 [Example 15, 5,7-dimethoxy-4-methyl-3-[2-(4-phenyl-1-piperazinyl)ethyl]-2H-1-benzopyran-2-one]	87.5	1		
COc1ccc(CCN(C)CCCC(C#N)(c2ccc(OC)c(OC)c2)C(C)C)cc1OC (stereo not shown) [Verapamil, reference compound]		17.3		87.5
CCOc1cc2c(C)c(CCN3CCN(c4ccccc4OC)CC3)c(=O)oc2cc1OC [Example 7, 6-ethoxy-7-methoxy-3-{2-[4-(2-methoxyphenyl)-1-piperazinyl]ethyl}-4-methyl-2H-1-benzopyran-2-one]	100	0.4		
COc1cc(OC)c2c(C)c(CCN3CCN(c4ccccc4OC)CC3)c(=O)oc2c1 [Example 17, 5,7-dimethoxy-3-{2-[4-(2-methoxyphenyl)-1-piperazinyl]ethyl}-4-methyl-2H-1-benzopyran-2-one]	100	0.2		
Fc1ccc(C(c2ccc(F)cc2)N2CCN(C/C=C/c3ccccc3)CC2)cc1 [Flunarizin, reference compound]		22.8	100	
COc1cc(OC)c2c(C)c(CCN3CCN(c4cccc(C(F)(F)F)c4)CC3)c(=O)oc2c1 [Example 23, 5,7-dimethoxy-4-methyl-3-{2-[4-(3-trifluoromethylphenyl)-1-piperazinyl]ethyl}-2H-1-benzopyran-2-one]	25			
CNC1(c2ccccc2Cl)CCCCC1=O (stereo not shown) [Ketamin]				0
CCS(=O)(=O)Oc1cc2c(C)c(CCN3CCN(c4ccccc4OC)CC3)c(=O)oc2cc1OC [Example 9, 6-(ethanesulphonyloxy)-7-methoxy-3-(2-[4-(2-methoxyphenyl)-1-piperazinyl]-ethyl)-4-methyl-2H-1-benzopyran-2-one]	100	0.6		
COc1cc2oc(=O)c(CCN3CCN(c4ccccc4OC)CC3)c(C)c2cc1OC(C)C [Example 8, 7-methoxy-3-{2-[4-(2-methoxyphenyl)-1-piperazinyl]ethyl}-4-methyl-6-(1-methylethoxy)-2H-1-benzopyran-2-one]	100	0.7		
CCOc1ccc2c(C)c(CCN3CCN(c4ccccc4OC)CC3)c(=O)oc2c1OCC [Example 11, 7,8-diethoxy-3-{2-[4-(2-methoxyphenyl)-1-piperazinyl]ethyl}-4-methyl-2H-1-benzopyran-2-one]	100			
COc1ccccc1N1CCN(CCc2c(C)c3ccc(OC)c(OC)c3oc2=O)CC1 [Example 10, 7,8-dimethoxy-3-{2-[4-(2-methoxyphenyl)-1-piperazinyl]ethyl}-4-methyl-2H-1-benzopyran-2-one]	100	0.4		
COc1ccccc1N1CCN(CCc2c(C)c3c(O)cc(O)cc3oc2=O)CC1 [Example 16, 5,7-dihydroxy-3-{2-[4-(2-methoxyphenyl)-1-piperazinyl]ethyl}-4-methyl-2H-1-benzopyran-2-one]	100	0.2		
CCCOc1cc(OCCC)c2c(C)c(CCN3CCN(c4ccccc4OC)CC3)c(=O)oc2c1 [Example 19, 3-{2-[4-(2-methoxyphenyl)-1-piperazinyl]ethyl}-4-methyl-5,7-dipropoxy-2H-1-benzopyran-2-one]	100			
COc1cc2oc(=O)c(CCN3CCC(c4ccccc4)CC3)c(C)c2c(OC)c1OC [Example 12, 5,6,7-trimethoxy-4-methyl-3-[2-(4-phenyl-1-piperidinyl)ethyl]-2H-1-benzopyran-2-one]	75	3.4		
COCCOC(=O)C1=C(C)NC(C)=C(C(=O)OC(C)C)C1c1cccc([N+](=O)[O-])c1 (stereo not shown) [Nimodipin, reference compound]		18.5		87.5
COc1cc2oc(=O)c(CCN3CCN(c4ccccc4)CC3)c(C)c2cc1OC [Example 3, 6,7-dimethoxy-4-methyl-3-[2-(4-phenyl-1-piperazinyl)ethyl]-2H-1-benzopyran-2-one]	50			
CCOc1ccccc1N1CCN(CCc2c(C)c3c(OC)cc(OC)cc3oc2=O)CC1 [Example 20, 3-{2-[4-(2-ethoxyphenyl)-1-piperazinyl]ethyl}-5,7-dimethoxy-4-methyl-2H-1-benzopyran-2-one]	100			
COc1cc(OC)c2c(C)c(CCN3CCN(c4ccccc4F)CC3)c(=O)oc2c1 [Example 22, 3-{2-[4-(2-fluorophenyl)-1-piperazinyl]ethyl}-5,7-dimethoxy-4-methyl-2H-1-benzopyran-2-one]	100			
CCOc1cc2c(C)c(CCN3CCC(c4ccccc4)CC3)c(=O)oc2cc1OC [Example 5, 6-ethoxy-7-methoxy-4-methyl-3-[2-(4-phenyl-1-piperidinyl)ethyl]-2H-1-benzopyran-2-one]	75	4.1		
COc1cc2oc(=O)c(CCN3CCN(c4ccccc4)CC3)c(C)c2c(OC)c1OC [Example 13, 5,6,7-trimethoxy-4-methyl-3-[2-(4-phenyl-1-piperazinyl)ethyl]-2H-1-benzopyran-2-one]	62.5			
COc1cc2oc(=O)c(CCN3CCN(c4ccccc4OC)CC3)c(C)c2cc1OC [Example 4, 6,7-dimethoxy-3-{2-[4-(2-methoxyphenyl)-1-piperazinyl)ethyl]-4-methyl-2H-1-benzopyran-2-one]	100	0.4		
CCOc1cc(OCC)c2c(C)c(CCN3CCN(c4ccccc4OC)CC3)c(=O)oc2c1 [Example 18, 5,7-diethoxy-3-{2-[4-(2-methoxyphenyl)-1-piperazinyl]ethyl}-4-methyl-2H-1-benzopyran-2-one]	100	0.6		
